Source: the supplement of paper PMC13380429

Key:
[1] = tested on: A549-ACE2 infected with SARS-CoV-2; assay: morphology score (similarity to uninfected cells); higher = more like uninfected cells; conditions: 24 h
[2] = tested on: A549-ACE2 infected with SARS-CoV-2; assay: SARS-CoV-2 infection rate relative to DMSO; higher = more infection; conditions: 24 h
[3] = tested on: A549-ACE2 infected with SARS-CoV-2; assay: cell count relative to DMSO; higher = less toxic; conditions: 24 h
U2OS [4] = assay: cell viability relative to DMSO; higher = less toxic; conditions: 72 h
Caco-2 [5] = assay: as above; conditions: 72 h
HepG2 [6] = assay: as above; conditions: 72 h
Calu-3 [7] = assay: as above; conditions: 72 h
Vero E6 [8] = assay: as above; conditions: 72 h
U2OS [9] = assay: drug sensitivity score (DSS) for viability; higher = more toxic; extreme values may be limits of the assay; conditions: 72 h
Caco-2 [10] = assay: as above; conditions: 72 h
HepG2 [11] = assay: as above; conditions: 72 h
Calu-3 [12] = assay: as above; conditions: 72 h
Vero E6 [13] = assay: as above; conditions: 72 h
Caco-2 [14] = assay: relative viability EC50 (midpoint between 100% and the lowest measured viability); higher = less toxic; conditions: 72 h
Calu-3 [15] = assay: as above; conditions: 72 h
Vero E6 [16] = assay: as above; conditions: 72 h
A549-ACE2 = assay: drug-induced phospholipidosis relative to tamoxifen; higher = more phospholipidosis
U2OS [17] = assay: relative viability EC50 (midpoint between 100% and the lowest measured viability); higher = less toxic; conditions: 72 h
HepG2 [18] = assay: as above; conditions: 72 h

COc1cc2ncnc(Nc3cccc(Br)c3)c2cc1OC
Conditions	SARS-CoV-2 infection rate, [2] [%]	cell count, [3] [%]	cell viability, Caco-2 [5] [%]	cell viability, Calu-3 [7] [%]	cell viability, HepG2 [6] [%]	cell viability, U2OS [4] [%]	cell viability, Vero E6 [8] [%]	morphology score, [1]
1 nM	–	–	88.5	102	103	93.7	101	–
10 nM	–	–	109	84.4	86.4	98.4	84.6	–
100 nM	–	–	95.1	96.5	92.6	97.6	102	–
0.3 µM	107	87	–	–	–	–	–	-0.21
1000 nM	–	–	69.6	40.4	92.1	93.2	79.7	–
3 µM	86	105	–	–	–	–	–	0.38
10 µM	33	92	–	–	–	–	–	0.64
10000 nM	–	–	47.2	23.6	71.6	72.9	49.6	–
30 µM	64	29	–	–	–	–	–	-0.06

Conditions	drug sensitivity score	relative viability EC50 [µM]
Caco-2 [10]	6.4	–
Caco-2 [14]	–	0.774
Calu-3 [12]	11.7	–
Calu-3 [15]	–	0.497
HepG2 [11]	2.1	–
U2OS [9]	2.1	–
Vero E6 [13]	5.4	–
Vero E6 [16]	–	1.17

drug-induced phospholipidosis [%], A549-ACE2
Conditions	0.3 µM	0.833333 µM	3.33333 µM	6.66667 µM	10 µM	30 µM
24 h	1.6	-1.36	0.82	3.17	1.18	9.67
48 h	-2.83	-1.17	-1.23	-4.71	-0.44	–
72 h	2.41	-2.62	-2.62	-1.43	0.652	–

C=C1CC[C@@H]2[C@](C)(CO)[C@H](O)CC[C@@]2(C)[C@@H]1C/C=C1/C(=O)OC[C@H]1O [andrographolide]
Conditions	SARS-CoV-2 infection rate, [2] [%]	cell count, [3] [%]	cell viability, Caco-2 [5] [%]	cell viability, Calu-3 [7] [%]	cell viability, HepG2 [6] [%]	cell viability, U2OS [4] [%]	cell viability, Vero E6 [8] [%]	morphology score, [1]
1 nM	–	–	99.1	90.5	102	103	100	–
10 nM	–	–	104	94.3	99.2	95.7	104	–
0.1 µM	103	101	–	–	–	–	–	-0.02
100 nM	–	–	101	105	109	102	98	–
0.3 µM	110	101	–	–	–	–	–	-0.22
1 µM	111	96	–	–	–	–	–	-0.15
1000 nM	–	–	94.3	106	102	96.2	112	–
3 µM	102	102	–	–	–	–	–	-0.17
10000 nM	–	–	66	112	66.5	22.9	73.8	–

Conditions	drug sensitivity score	relative viability EC50 [µM]
Caco-2 [10]	2.5	–
Calu-3 [12]	0	–
Calu-3 [15]	–	> 10
HepG2 [11]	1.4	–
U2OS [9]	4.8	–
U2OS [17]	–	2.78
Vero E6 [13]	0.7	–

drug-induced phospholipidosis [%], A549-ACE2
Conditions	0.3 µM	0.833333 µM	3.33333 µM	6.66667 µM	10 µM	30 µM
24 h	4.15	-1.47	2.19	13.3	16	25
48 h	3.38	2.04	3.48	15.8	19.9	–
72 h	0.729	-0.638	-0.912	5.37	8.38	–

Nc1nc(O)c2[nH]nnc2n1 [azaguanine-8]
Conditions	SARS-CoV-2 infection rate, [2] [%]	cell count, [3] [%]	cell viability, Caco-2 [5] [%]	cell viability, Calu-3 [7] [%]	cell viability, HepG2 [6] [%]	cell viability, U2OS [4] [%]	cell viability, Vero E6 [8] [%]	morphology score, [1]
1 nM	–	–	104	94.4	102	102	104	–
10 nM	–	–	105	94	100	95.4	103	–
0.1 µM	106	102	–	–	–	–	–	0.12
100 nM	–	–	93.5	89.5	100	102	105	–
0.3 µM	91	104	–	–	–	–	–	0.27
1 µM	96	102	–	–	–	–	–	0.08
1000 nM	–	–	91.9	89.5	106	97.6	103	–
3 µM	94	102	–	–	–	–	–	0.33
10000 nM	–	–	91.1	81.2	29.6	89.2	52	–

Conditions	drug sensitivity score	relative viability EC50 [µM]
Caco-2 [10]	0	–
Caco-2 [14]	–	> 10
Calu-3 [12]	1.4	–
Calu-3 [15]	–	> 10
HepG2 [11]	3.4	–
HepG2 [18]	–	3.6
U2OS [9]	0.1	–
U2OS [17]	–	> 10
Vero E6 [13]	2.3	–

drug-induced phospholipidosis [%], A549-ACE2
Conditions	0.3 µM	0.833333 µM	3.33333 µM	6.66667 µM	10 µM	30 µM
24 h	2.81	-0.65	-1.26	-0.07	3.53	16.6
48 h	3.95	-1.52	-4.45	-3.51	-4.77	–
72 h	5.19	-2.08	-1.89	-4.08	-4.93	–

NS(=O)(=O)C#Cc1ccccc1 [pifithrin-mu]
Conditions	SARS-CoV-2 infection rate, [2] [%]	cell count, [3] [%]	cell viability, Caco-2 [5] [%]	cell viability, Calu-3 [7] [%]	cell viability, HepG2 [6] [%]	cell viability, U2OS [4] [%]	cell viability, Vero E6 [8] [%]	morphology score, [1]
1 nM	–	–	97.2	107	104	99.8	100	–
10 nM	–	–	100	99	89.3	97.5	95.5	–
0.1 µM	104	98	–	–	–	–	–	-0.1
100 nM	–	–	102	98.4	91.1	97.2	94.4	–
0.3 µM	106	98	–	–	–	–	–	-0.19
1 µM	90	101	–	–	–	–	–	0.29
1000 nM	–	–	92.4	111	104	95.7	98.4	–
3 µM	101	99	–	–	–	–	–	-0.06
10000 nM	–	–	37.8	89.7	54.3	20	77.9	–

Conditions	drug sensitivity score	relative viability EC50 [µM]
Caco-2 [10]	4.7	–
Caco-2 [14]	–	2.17
Calu-3 [12]	0	–
Calu-3 [15]	–	> 10
HepG2 [11]	2	–
U2OS [9]	5	–
U2OS [17]	–	2.75
Vero E6 [13]	1	–
Vero E6 [16]	–	> 10

drug-induced phospholipidosis [%], A549-ACE2
Conditions	0.3 µM	0.833333 µM	3.33333 µM	6.66667 µM	10 µM	30 µM
24 h	2.1	0.49	1.97	5.31	12.1	-1.3
48 h	2.3	-0.12	0.23	3.31	7.4	–
72 h	3.99	-0.0686	0.345	0.553	1.82	–
